Laboratory results taken from PubChem BioAssay (NCI).
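Cultured in 96-well plates, cells were exposed to test compound for 48 hours across five concentrations. GI50: concentration for 50% inhibition of growth. The concentration for full growth arrest is given as TGI.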

Columns and labels:
Test in all cases: NCI anticancer screen, dose series, 48 h
SK-MEL-28 melanoma = test system: SK-MEL-28 melanoma
KM12 colon = test system: KM12 colon
UO-31 renal = test system: UO-31 renal
T-47D breast = test system: T-47D breast
BT-549 breast = test system: BT-549 breast
SNB-19 CNS = test system: SNB-19 CNS
PC-3 prostate = test system: PC-3 prostate
SF-268 CNS = test system: SF-268 CNS
HT29 colon = test system: HT29 colon
HS 578T breast = test system: HS 578T breast
OVCAR-3 ovarian = test system: OVCAR-3 ovarian
SF-539 CNS = test system: SF-539 CNS
OVCAR-5 ovarian = test system: OVCAR-5 ovarian
HOP-62 NSCLC = test system: HOP-62 NSCLC
786-0 renal = test system: 786-0 renal
HCT-116 colon = test system: HCT-116 colon
MOLT-4 leukemia = test system: MOLT-4 leukemia
MALME-3M melanoma = test system: MALME-3M melanoma
NCI-H23 lung = test system: NCI-H23 lung
SW-620 colon = test system: SW-620 colon
SN12C renal = test system: SN12C renal
HCC-2998 colon = test system: HCC-2998 colon
TK-10 renal = test system: TK-10 renal
HL-60(TB) leukemia = test system: HL-60(TB) leukemia
M14 melanoma = test system: M14 melanoma
NCI-H522 lung = test system: NCI-H522 lung
SR leukemia = test system: SR leukemia
MDA-MB-231 breast = test system: MDA-MB-231 breast
K-562 leukemia = test system: K-562 leukemia

Question: What does the source list for `O=C(Cn1c2ccccc2c2ccncc21)N/N=C\c1ccc2ccccc2c1`?
Answer: TGI (SK-MEL-28 melanoma): 79.7 µM; GI50 (KM12 colon): 29.6 µM; TGI (KM12 colon): > 100 µM; GI50 (UO-31 renal): 13.3 µM; TGI (UO-31 renal): 45.6 µM; GI50 (T-47D breast): 25.2 µM; TGI (T-47D breast): > 100 µM; GI50 (BT-549 breast): 15.6 µM; TGI (BT-549 breast): 36.5 µM; GI50 (SNB-19 CNS): 17.7 µM; TGI (SNB-19 CNS): 42.4 µM; GI50 (PC-3 prostate): 19 µM; TGI (PC-3 prostate): > 100 µM; GI50 (SF-268 CNS): 18.7 µM; TGI (SF-268 CNS): 91.6 µM; GI50 (HT29 colon): 21.7 µM; TGI (HT29 colon): 50.3 µM; GI50 (HS 578T breast): 23.5 µM; TGI (HS 578T breast): 79.2 µM; GI50 (OVCAR-3 ovarian): 12.2 µM; TGI (OVCAR-3 ovarian): 36.5 µM; GI50 (SF-539 CNS): 13.6 µM; TGI (SF-539 CNS): 28.7 µM; GI50 (OVCAR-5 ovarian): 36.5 µM; TGI (OVCAR-5 ovarian): > 100 µM; GI50 (HOP-62 NSCLC): 17.3 µM; TGI (HOP-62 NSCLC): 39.3 µM; GI50 (786-0 renal): 13.8 µM; TGI (786-0 renal): 30 µM; GI50 (HCT-116 colon): 3.51 µM; TGI (HCT-116 colon): 15 µM; GI50 (MOLT-4 leukemia): 16.7 µM; TGI (MOLT-4 leukemia): > 100 µM; GI50 (MALME-3M melanoma): 11.4 µM; TGI (MALME-3M melanoma): 45.6 µM; GI50 (NCI-H23 lung): 17.6 µM; TGI (NCI-H23 lung): 52.6 µM; GI50 (SW-620 colon): 12.7 µM; TGI (SW-620 colon): > 100 µM; GI50 (SN12C renal): 14.7 µM; TGI (SN12C renal): 46.6 µM; GI50 (HCC-2998 colon): 35.9 µM; TGI (HCC-2998 colon): > 100 µM; GI50 (TK-10 renal): 27.3 µM; TGI (TK-10 renal): 54.7 µM; GI50 (HL-60(TB) leukemia): 29 µM; TGI (HL-60(TB) leukemia): > 100 µM; GI50 (M14 melanoma): 16.5 µM; TGI (M14 melanoma): 50.2 µM; GI50 (NCI-H522 lung): 19.6 µM; TGI (NCI-H522 lung): 51.5 µM; GI50 (SR leukemia): 6.39 µM; TGI (SR leukemia): > 100 µM; GI50 (MDA-MB-231 breast): 14.5 µM; TGI (MDA-MB-231 breast): 32.9 µM; GI50 (K-562 leukemia): 24.7 µM; TGI (K-562 leukemia): > 100 µM
